The values below come from ChEMBL document CHEMBL1145649, “Novel HCV NS5B polymerase inhibitors derived from 4-(1',1'-dioxo-1',4'-dihydro-1'lambda6-benzo[1',2',4']thiadiazin-3'-yl)-5-hydroxy-2H-pyridazin-3-ones: Part 4. Optimization of DMPK properties” (Bioorg Med Chem Lett, 2008).

A short description of series [1]: Fraction absorbed in cynomolgus monkey at 1 mg/kg, po. In kind it is ADME, organism-based, Macaca fascicularis. Also on record: dose 1 mg/kg, route oral. The conditions noted are these: in vivo, read-out: Fabs.
Another series is described as follows: physchem. As to conditions: buffer, pH 7.4.
The next series is described as follows: in vitro. As to conditions: human, Caco-2.
Series [2] in a line: Oral bioavailability in cynomolgus monkey at 1 mg/kg. In kind it is ADME, organism-based, Macaca fascicularis. As to conditions: in vivo.
Series [3] can be described thus: Volume of distribution at steady state in cynomolgus monkey at 1 mg/kg, iv. In kind it is ADME, organism-based, Macaca fascicularis. Also on record: dose 1 mg/kg, route intravenous. The conditions noted are these: in vivo, read-out: Vdss.
Series [4] relates to Cynomolgus monkey. In words: AUC (0 to infinity) in cynomolgus monkey at 1 mg/kg, iv. In kind it is ADME, organism-based, Macaca fascicularis, Plasma. Also on record: time infinity, dose 1 mg/kg, route intravenous. The conditions noted are these: in vivo.
In series [5] the test system is Cynomolgus monkey. Kind of series: AUC (0 to infinity) in cynomolgus monkey at 1 mg/kg, po. Also on record: time infinity, dose 1 mg/kg, route oral. The conditions noted are these: in vivo. Format: ADME, organism-based, Macaca fascicularis, Plasma.
A short description of series [6]: Tmax in cynomolgus monkey at 1 mg/kg, po. In kind it is ADME, organism-based, Macaca fascicularis. Also on record: dose 1 mg/kg, route oral. The conditions noted are these: in vivo.
Series [7] can be described thus: Cmax in cynomolgus monkey at 1 mg/kg, po. In kind it is ADME, organism-based, Macaca fascicularis. Also on record: dose 1 mg/kg, route oral. The conditions noted are these: in vivo.

Take `CN(c1ccc2c(c1)S(=O)(=O)N=C(c1c(O)c(-c3cccs3)nn(CCC(C)(C)C)c1=O)N2)S(C)(=O)=O`: the Fa in series [1] is 5%. In addition, the solubility in the series “physchem” was more than 100 µM. The compound further yielded a Papp A→B at 10 µM in the series “in vitro” of 0.01 ×10⁻⁶ cm/s. Also, the bioavailability in [2] stood at 3%.
Take `CC(C)CCn1nc(CC2CC2)c(O)c(C2=NS(=O)(=O)c3cc(NS(C)(=O)=O)ccc3N2)c1=O`: the Fa in [1] worked out at 9%. This compound showed a solubility in the series “physchem” of more than 100 µM. For the same compound, in “in vitro”, the apical-to-basolateral permeability (Papp A→B) at 10 µM amounted to 0.49 ×10⁻⁶ cm/s. The same compound showed a bioavailability in [2] of 7%.
As to `CC(C)CCn1nc(CC2CCCC2)c(O)c(C2=NS(=O)(=O)c3cc(NS(C)(=O)=O)ccc3N2)c1=O`, the Fa in series [1] was 18%. The Vd in [3] worked out at 0.15 L/kg. Besides, the exposure (AUC) stood at 2540 ng·h/mL in the series on Cynomolgus monkey [4] and 370 ng·h/mL in the series on Cynomolgus monkey [5]. Moreover, the Tmax in series [6] was determined as 1.3 h. The highest level in [7] (Cmax) was 113 ng/mL. Moreover, the bioavailability in [2] was determined as 15%.
For `CC(C)(C)CCn1nc(C2=CCCC2)c(O)c(C2=NS(=O)(=O)c3cc(NS(C)(=O)=O)ccc3N2)c1=O`, in series [1], the Fa amounted to 7%. The bioavailability in [2] is 4%.
Regarding `CC(C)(C)CCn1nc(CC2CCCC2)c(O)c(C2=Nc3ccc(NS(C)(=O)=O)cc3S(=O)(=O)N2)c1=O`, the Fa in [1] is 18%. Further, in series [3], the Vd was found to be 0.57 L/kg. The figures for the AUC with Cynomolgus monkey [4] and in the series with Cynomolgus monkey [5] were 851 ng·h/mL and 89 ng·h/mL, respectively. Moreover, the solubility in the series “physchem” was more than 100 µM. Besides, the Tmax in series [6] was 6 h. In series [7], this compound registered a Cmax of 13 ng/mL. This compound also came in with a bioavailability in series [2] of 10%.
`CC(C)CCn1nc(C(C)(C)C)c(O)c(C2=NS(=O)(=O)c3cc(NS(C)(=O)=O)ccc3N2)c1=O`: the Fa in [1] was 17%. Also, the Vd in series [3] came out at 0.17 L/kg. Further, the area under the curve (AUC) was determined as 3980 ng·h/mL in the series on Cynomolgus monkey [4] and 611 ng·h/mL with Cynomolgus monkey [5]. Also, the solubility in the series “physchem” was more than 100 µM. Moreover, in “in vitro”, the Papp A→B at 10 µM turned out to be 0.58 ×10⁻⁶ cm/s. The Tmax in series [6] came out at 1.5 h. In addition, in series [7], the highest concentration (Cmax) was 294 ng/mL. The compound also came in with a bioavailability in series [2] of 15%.
Take `CC(C)CCn1nc(CC(C)(C)C)c(O)c(C2=NS(=O)(=O)c3cc(NS(C)(=O)=O)ccc3N2)c1=O`: the Fa in [1] was 8%. The solubility in the series “physchem” is more than 100 µM. This compound also gave a Papp A→B at 10 µM in the series “in vitro” of 0.29 ×10⁻⁶ cm/s. The compound also yielded a bioavailability in [2] of 6%.
The matching figures for `CS(=O)(=O)Nc1ccc2c(c1)S(=O)(=O)N=C(c1c(O)c(C3=CCCC3)nn(CCC3CC3)c1=O)N2`: 6%, more than 100 µM, 0.59 ×10⁻⁶ cm/s and 4%.
The corresponding values for `CC(C)=Cc1nn(CCC(C)(C)C)c(=O)c(C2=NS(=O)(=O)c3cc(NS(C)(=O)=O)ccc3N2)c1O` are 2%, more than 100 µM, 1 ×10⁻⁶ cm/s and 2%.
On to `CC(C)(C)CCn1nc(CC(C)(C)C)c(O)c(C2=NS(=O)(=O)c3cc(NS(C)(=O)=O)ccc3N2)c1=O`, for which the Fa in series [1] was determined as 4%. In “physchem”, this compound yielded a solubility of more than 100 µM. The apical-to-basolateral permeability (Papp A→B) at 10 µM in “in vitro” turned out to be 0.15 ×10⁻⁶ cm/s. The compound further yielded a bioavailability in series [2] of 4%.
Take `CC(C)(C)CCn1nc(C2CC2)c(O)c(C2=Nc3ccc(NS(C)(=O)=O)cc3S(=O)(=O)N2)c1=O`: the Fa in [1] was found to be 5%. Moreover, the solubility in the series “physchem” was more than 50 µM. In the series “in vitro”, this compound displayed a Papp A→B at 10 µM of 0.95 ×10⁻⁶ cm/s. In [2], the bioavailability turned out to be 4%.
Consider `CC(C)CCn1nc(-c2cccs2)c(O)c(C2=NS(=O)(=O)c3cc(N(C)S(C)(=O)=O)ccc3N2)c1=O`, for which the Fa in series [1] is 33%. In [3], the Vd was found to be 0.57 L/kg. Besides, the figures for the exposure (AUC) in the series on Cynomolgus monkey [4] and in the series with Cynomolgus monkey [5] were 605 ng·h/mL and 72 ng·h/mL, respectively. In addition, the solubility in the series “physchem” is more than 100 µM. For the same compound, the Tmax in [6] was 6 h. The compound further yielded a Cmax in [7] of 11 ng/mL.
In the case of `CC(C)CCn1nc(-c2cccs2)c(O)c(C2=Nc3ccc(NS(C)(=O)=O)cc3S(=O)(=O)N2)c1=O`, the Fa in series [1] stood at 4%. For the same compound, in series [3], the Vd was 0.18 L/kg. In addition, the AUC in the series on Cynomolgus monkey [4] is 1330 ng·h/mL; in the series with Cynomolgus monkey [5], 30 ng·h/mL. For the same compound, the solubility in the series “physchem” is more than 100 µM. In addition, the Tmax in series [6] worked out at 6.3 h. The compound further registered a maximum concentration (Cmax) in [7] of 3.8 ng/mL.
Take `Cc1ccc(-c2nn(Cc3ccccc3)c(=O)c(C3=Nc4ccccc4S(=O)(=O)N3)c2O)s1`: in [1], the Fa is 36%. The Vd in series [3] worked out at 0.21 L/kg. Moreover, the exposure (AUC) with Cynomolgus monkey [4] was determined as 10900 ng·h/mL; in the series with Cynomolgus monkey [5], 3650 ng·h/mL. Also, the solubility in “physchem” was more than 80 µM. In addition, the time to peak (Tmax) in [6] is 2 h. The same compound came in with a Cmax in series [7] of 673 ng/mL.
`CC(C)(C)Cc1nn(CCC2CC2)c(=O)c(C2=Nc3ccc(NS(C)(=O)=O)cc3S(=O)(=O)N2)c1O`: the Fa in [1] was 7%. The same compound had a solubility in “physchem” of more than 100 µM. Moreover, the apical-to-basolateral permeability (Papp A→B) at 10 µM in the series “in vitro” came to 0.7 ×10⁻⁶ cm/s. In series [2], this compound showed a bioavailability of 6%.
